Assay results as given in PMC12677607, “Identification of a Pair of Linear or Cyclic Naturally Inspired Bifunctional Lipopeptide Antibiotics That Overcome Antimicrobial Resistance” (Advanced Science, 2025).
In brackets after ≈: the same amount, converted by molar mass. Bridge positions count the residues as written; N and C are the ends. Square brackets hold non-standard residues; d marks the D form. Peptide text beside a SMILES is read from it. * marks the point of attachment. Myristoyl = CCCCCCCCCCCCCC(=O)*; Orn = NCCC[C@H](N)C(=O)O; Dab = NCC[C@H](N)C(=O)O; Dap = NC[C@H](N)C(=O)O

Legend:
Type in all cases: cell-based
S. aureus USA300 [1] = assay: Membrane component feeding assay; settings: for inhibition of antibacterial activity by MK, UQ or PC: feeding 2 to 128 µg mL^−1, S. aureus USA300 (PC also E. coli DH5α), Figure S125
Protocol: The effects of bacterial membrane components on aquicidine L's or aquicidine C4's anti‐bacterial activities were evaluated using E. coli DH5α or S. aureus USA300. […] All experiments were done in triplicate (n = 3) and repeated two independent times (n = 2).

S. aureus USA300 [2] = assay: Time-dependent killing assay; settings: 4× MIC, time-dependent killing curve, n = 3
Protocol: Overnight cultures of S. aureus USA300 were diluted 1:10000 in LB broth and incubated for 2 h at 37 °C and 200 rpm. […] After 15, 30, 60, 120, 180, 240, 300, and 360 min, 100 µL of cell suspension were collected, serially diluted, and plated on LB agar plates. After an incubation of 16 h at 37 °C, bacterial colonies were counted. Experiments were performed three independent times (n = 3).

[3] = test system: Klebsiella pneumoniae NCTC 5056; assay: microbe, parasite or virus in culture; settings: NCTC 5056, 16 h
Outline: (§1)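 Broth microdilution in LB, run in two independent repeats. Overnight cultures were diluted 5000-fold, except S. aureus at 10000-fold, and mixed with peptide-containing LB (2-fold series, 64 to 0.125 µg mL^−1 before mixing). MIC is the lowest concentration that prevented visible growth.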

[4] = test system: Streptococcus pyogenes ATCC 19615; assay: microbe, parasite or virus in culture; settings: Table S11; LB broth, 37 °C, 16 h, n = 2
Outline: as §1

[5] = test system: Staphylococcus aureus USA300; assay: microbe, parasite or virus in culture; settings: for MIC Staphylococcus aureus USA300: Table S11, LB broth, 37 °C, 16 h, n = 2
Outline: as §1

[6] = test system: Pseudomonas aeruginosa ATCC 9027; assay: microbe, parasite or virus in culture; settings: ATCC 9027, 16 h
Outline: as §1

[7] = test system: Enterococcus faecalis ATCC 29212; assay: microbe, parasite or virus in culture; settings: ATCC 29212, 16 h
Outline: as §1

[8] = test system: Staphylococcus aureus ATCC 25923; assay: microbe, parasite or virus in culture; settings: ATCC 25923, 16 h
Outline: as §1

Enterococcus faecalis 28 = assay: microbe, parasite or virus in culture; settings: 28, 16 h
Outline: as §1

[9] = test system: Vibrio alginolyticus XSBZ14; assay: microbe, parasite or virus in culture; settings: 16 h
Outline: as §1

[10] = test system: Staphylococcus aureus Newman; assay: microbe, parasite or virus in culture; settings: Newman, 16 h
Outline: as §1

[11] = test system: Pseudomonas aeruginosa PAO1; assay: microbe, parasite or virus in culture
Outline: as §1

[12] = test system: Klebsiella pneumoniae ATCC 13883; assay: microbe, parasite or virus in culture; settings: ATCC 13883, 16 h
Outline: as §1

[13] = test system: Salmonella typhimurium LXX; assay: microbe, parasite or virus in culture; settings: murium LXX, 16 h
Outline: as §1

Enterococcus faecalis 26 = assay: microbe, parasite or virus in culture; settings: 26, 16 h
Outline: as §1

[14] = test system: Enterococcus faecium 35682; assay: microbe, parasite or virus in culture; settings: Table S11; LB broth, 37 °C, 16 h, n = 2
Outline: as §1

[15] = test system: Streptococcus mutans ATCC 25175; assay: microbe, parasite or virus in culture; settings: ATCC 25175, 16 h
Outline: as §1

[16] = test system: Acinetobacter baumannii ATCC 17978; assay: microbe, parasite or virus in culture; settings: ATCC 17978, 16 h
Outline: as §1

[17] = test system: Klebsiella pneumoniae CRKP 5452; assay: microbe, parasite or virus in culture; settings: for MIC Klebsiella pneumoniae CRKP 5452: Table S11, LB broth, 37 °C, 16 h, n = 2
Outline: as §1

[18] = test system: Klebsiella pneumoniae CRKP HS11286; assay: microbe, parasite or virus in culture; settings: for MIC Klebsiella pneumoniae CRKP HS11286: CRKP HS11286, 16 h
Outline: as §1

[19] = test system: Acinetobacter baumannii ATCC 19606; assay: microbe, parasite or virus in culture; settings: ATCC 19606, 16 h
Outline: as §1

[20] = test system: Salmonella enterica ATCC 14028; assay: microbe, parasite or virus in culture; settings: ATCC 14028, 16 h
Outline: as §1

[21] = test system: Acinetobacter baumannii 1104008; assay: microbe, parasite or virus in culture; settings: Table S11; LB broth, 37 °C, 16 h, n = 2
Outline: as §1

[22] = test system: Staphylococcus aureus ATCC 6538; assay: microbe, parasite or virus in culture; settings: ATCC 6538, 16 h
Outline: as §1

E. coli DH5α = assay: Bactericidal effects / cell lysis in E. coli; settings: after 12 h at 16× MIC, Figure S123a
[23] = test system: Candida albicans ATCC 64550; settings: ATCC 64550, 16 h
Protocol: All MIC assays were performed two independent times (n = 2) in 96‐well plates using a broth micro‐dilution method. The lowest concentration of that inhibited visible microbial growth was recorded as the MIC value.
For fungal strains, overnight cultures were diluted 2000‐fold in YPD broth. 100 µL of diluted cells was mixed with 100 µL of YPD broth containing each peptide ranging from […] 64 to 0.125 µg mL^−1 at 2‐fold serial dilutions.

B. subtilis ATCC 23857 = assay: MIC assay (broth micro-dilution); settings: Table S11; LB broth, 37 °C, 16 h, n = 2
Outline: as §1

Escherichia coli DH5α = assay: MIC assay (broth micro-dilution); settings: Table S11; LB broth, 37 °C, 16 h, n = 2
Outline: as §1

SMILES | inhibition of antibacterial activity by MK, UQ or PC (S. aureus USA300 [1]) | bactericidal activity, number of viable cells (S. aureus USA300 [2]) | MIC Klebsiella pneumoniae NCTC 5056 [3] [µg/mL] | MIC Streptococcus pyogenes ATCC 19615 [4] [µg/mL] | MIC Staphylococcus aureus USA300 [5] [µg/mL] | MIC Pseudomonas aeruginosa ATCC 9027 [6] [µg/mL] | MIC Enterococcus faecalis ATCC 29212 [7] [µg/mL] | MIC Staphylococcus aureus ATCC 25923 [8] [µg/mL] | MIC Enterococcus faecalis 28 (Enterococcus faecalis 28) [µg/mL] | MIC Vibrio alginolyticus XSBZ14 [9] [µg/mL] | MIC Staphylococcus aureus Newman [10] [µg/mL] | MIC Klebsiella pneumoniae ATCC 13883 [12] [µg/mL] | MIC Salmonella typhimurium LXX [13] [µg/mL] | MIC Enterococcus faecalis 26 (Enterococcus faecalis 26) [µg/mL] | MIC Enterococcus faecium 35682 [14] [µg/mL] | MIC Streptococcus mutans ATCC 25175 [15] [µg/mL] | MIC Acinetobacter baumannii ATCC 17978 [16] [µg/mL] | MIC Klebsiella pneumoniae CRKP 5452 [17] [µg/mL] | MIC Klebsiella pneumoniae CRKP HS11286 [18] [µg/mL] | MIC Acinetobacter baumannii ATCC 19606 [19] [µg/mL] | further results
CCCCCCCCCCCCCC(=O)N[C@@H](CN)C(=O)N[C@H](C(=O)N[C@@H](CC(C)C)C(=O)N[C@H]1COC(=O)[C@H](Cc2ccccc2)NC(=O)[C@H](CC(N)=O)NC(=O)[C@H](CCCN)NC(=O)[C@H]([C@@H](C)CC)NC(=O)[C@H](Cc2ccccc2)NC(=O)[C@H](CN)NC(=O)[C@H](CCN)NC1=O)[C@@H](C)O [synAQU5-C4] (Myristoyl-[Dap]TLS[Dab][Dap]FI[Orn]NF; ester 4-C) | did not show dose‐dependent inhibition | decreased the number of viable cells by two orders of magnitude after 5 h | > 64 | 2 (≈ 1.41 µM) | 4 (≈ 2.82 µM) | 16 (≈ 11.3 µM) | 4 (≈ 2.82 µM) | 4 (≈ 2.82 µM) | 4 (≈ 2.82 µM) | 32 (≈ 22.5 µM) | 4 (≈ 2.82 µM) | > 64 | 32 (≈ 22.5 µM) | 2 (≈ 1.41 µM) | 4 (≈ 2.82 µM) | 4 (≈ 2.82 µM) | 32 (≈ 22.5 µM) | 32 (≈ 22.5 µM) | 32 (≈ 22.5 µM) | 32 (≈ 22.5 µM) | inhibition of antibacterial activity by CL and PG (S. aureus USA300 [1]; feeding 2 to 128 µg mL^−1, S. aureus USA300, Figure 5d): stronger dose‐dependent inhibition; antibacterial activity (MIC) S. aureus USA300 ([5]; Figure S127b, wild type): 4 µg/mL; MIC Pseudomonas aeruginosa PAO1 ([11]; PAO1, 16 h): 32 µg/mL (≈ 22.5 µM); MIC Salmonella enterica ATCC 14028 [20]: 32 µg/mL (≈ 22.5 µM); MIC Acinetobacter baumannii 1104008 [21]: 16 µg/mL (≈ 11.3 µM); MIC Staphylococcus aureus ATCC 6538 [22]: 4 µg/mL (≈ 2.82 µM); cell lysis in E. coli (E. coli DH5α): slightly led to cell lysis; MIC Candida albicans ATCC 64550 [23]: > 64 µg/mL; MIC Bacllussubtilis ATCC 23857 (B. subtilis ATCC 23857): 2 µg/mL (≈ 1.41 µM); MIC Escherichia coli DH5α (Escherichia coli DH5α): 8 µg/mL (≈ 5.63 µM)
CCCCCCCCCCCCCC(=O)N[C@@H](CN)C(=O)N[C@H](C(=O)N[C@@H](CC(C)C)C(=O)N[C@@H](CO)C(=O)N[C@@H](CCN)C(=O)N[C@@H](CN)C(=O)N[C@@H](Cc1ccccc1)C(=O)N[C@H](C(=O)N[C@@H](CCCN)C(=O)N[C@@H](CC(N)=O)C(=O)N[C@@H](Cc1ccccc1)C(=O)O)[C@@H](C)CC)[C@@H](C)O [synAQU5-L] (Myristoyl-[Dap]TLS[Dab][Dap]FI[Orn]NF-OH) | did not show dose‐dependent inhibition | only inhibited the growth of S. aureus USA300 within 2 h | 8 (≈ 5.56 µM) | 8 (≈ 5.56 µM) | 16 (≈ 11.1 µM) | 4 (≈ 2.78 µM) | 32 (≈ 22.3 µM) | 32 (≈ 22.3 µM) | 16 (≈ 11.1 µM) | 8 (≈ 5.56 µM) | 32 (≈ 22.3 µM) | 8 (≈ 5.56 µM) | 8 (≈ 5.56 µM) | 8 (≈ 5.56 µM) | 16 (≈ 11.1 µM) | 16 (≈ 11.1 µM) | 4 (≈ 2.78 µM) | 4 (≈ 2.78 µM) | 4 (≈ 2.78 µM) | 8 (≈ 5.56 µM) | MIC Pseudomonas aeruginosa PAO1 ([11]; Table S11, LB broth, 37 °C, 16 h, n = 2): 4 µg/mL (≈ 2.78 µM); antibacterial activity (MIC) K. pneumoniae CRKP 5452 ([17]; Figure S127a, wild type): 4 µg/mL; antibacterial activity (MIC) K. pneumoniae CRKP HS11286 ([18]; Figure S127a): 4 µg/mL; MIC Salmonella enterica ATCC 14028 [20]: 4 µg/mL (≈ 2.78 µM); MIC Acinetobacter baumannii 1104008 [21]: 4 µg/mL (≈ 2.78 µM); MIC Staphylococcus aureus ATCC 6538 [22]: 16 µg/mL (≈ 11.1 µM); cell lysis in E. coli (E. coli DH5α): significantly led to cell lysis; MIC Candida albicans ATCC 64550 [23]: > 64 µg/mL; MIC Bacllussubtilis ATCC 23857 (B. subtilis ATCC 23857): 8 µg/mL (≈ 5.56 µM); MIC Escherichia coli DH5α (Escherichia coli DH5α): 2 µg/mL (≈ 1.39 µM)
